In patent US6770669B1, “Amidine derivatives, preparation and use thereof as medicines” (Societe de Conseils de Recherches et d'Applications …, priority 1999, dated 2004):

Columns and labels:
[1] = molecular target: T1, neuronal constitutive NO synthase (Rattus norvegicus, UniProt P29476); test: Effects on neuronal constitutive NO synthase of a rat's cerebellum ([3H]L-arginine to [3H]L-citrulline conversion); format: biochemical; conditions: rat cerebellum homogenate; conversion of [3H]L-arginine to [3H]L-citrulline
T1 construct: The reaction is initiated by adding 50 μl of homogenate; from tissue; host or cells: cerebellum of Sprague-Dawley rats (homogenate centrifuged at 21000 g)
Protocol: Study of the Effects on Neuronal Constitutive NO Synthase of a Rat's Cerebellum
The inhibitory activity of the products of the invention is determined by measuring their effects on the conversion by NO synthase of [^3H]L-arginine to [^3H]L-citrulline according to the modified method of Bredt and Snyder (Proc. Natl. Acad. Sci. USA. (1990) 87: 682-685). The cerebellums of Sprague-Dawley rats (300 g—Charles River) are rapidly removed, dissected at 4° C. and homogenized in a volume of extraction buffer (HEPES 50 mM, EDTA 1 mM, pH 7.4, pepstatin A […], leupeptin […]). The homogenates are then centrifuged at 21000 g for 15 min at 4° C. Dosage is carried out in glass test tubes in which 100 μl of incubation buffer containing 100 mM of HEPES (pH 7.4), 2 mM of EDTA, 2.5 mM of CaCl2, 2 mM of dithiotreitol, 2 mM of reduced NADPH and 10 μg/ml of calmodulin are distributed. 25 μl of a solution containing 100 nM of [^3H]L-arginine (Specific activity: 56.4 Ci/mmole, Amersham) and 40 μM of non-radioactive L-arginine is added. The reaction is initiated by adding 50 μl of homogenate, the final volume being 200 μl (the missing 25 μl are either water or the tested product). […] After passing the samples through a 1 ml column of DOWEX resin, the radioactivity is quantified by a liquid scintillation spectrometer.

[2] = molecular target: T2, MAO-B (Rattus norvegicus, UniProt P19643); test: Effects on the bond of a specific ligand of MAO-B, [3H]Ro 19-6327 (rat cortex mitochondrial preparation); format: binding; conditions: [3H]Ro 19-6327 33 nM, 1 hour at 37° C.
T2 construct: 100 μl of the mitochondrial preparation (2 mg protein/ml) is incubated for 1 hour at 37° C; from tissue; host or cells: rat cortex, mitochondrial fraction
T2 sequence (P19643 1-520): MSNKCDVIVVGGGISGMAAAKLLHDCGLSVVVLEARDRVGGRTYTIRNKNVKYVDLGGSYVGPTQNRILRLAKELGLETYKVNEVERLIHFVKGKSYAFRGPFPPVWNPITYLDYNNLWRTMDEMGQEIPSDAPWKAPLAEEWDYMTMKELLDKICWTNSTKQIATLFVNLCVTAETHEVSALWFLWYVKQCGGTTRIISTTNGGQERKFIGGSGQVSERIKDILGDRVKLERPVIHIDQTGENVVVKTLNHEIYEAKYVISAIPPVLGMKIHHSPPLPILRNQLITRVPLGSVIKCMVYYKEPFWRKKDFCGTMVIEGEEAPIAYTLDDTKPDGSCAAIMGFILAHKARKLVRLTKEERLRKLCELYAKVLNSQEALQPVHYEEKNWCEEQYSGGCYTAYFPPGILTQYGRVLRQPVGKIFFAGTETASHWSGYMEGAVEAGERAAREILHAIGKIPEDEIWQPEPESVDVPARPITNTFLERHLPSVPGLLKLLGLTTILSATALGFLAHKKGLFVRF
Protocol: Study of the Effects on the Bond of a Specific Ligand of MAO-B, [^3H]Ro 19-6327
The inhibitory activity of the products of the invention is determined by measuring their effects on the bond of a specific ligand of MAO-B, [^3H]Ro 19-6327.
A) Mitochondrial Preparation of the Cortex of Rats
The mitochondrial preparation of the cortex of rats is carried out according to the method described in Cesura A M, Galva M D, Imhof R and Da Prada M, J. Neurochem. 48 (1987), 170-176. The rats are decapitated and their cortex is removed, homogenized in 9 volumes of a 0.32 M sucrose buffer, buffered to pH 7.4 with 5 mM of HEPES, then centrifuged at 800 g for 20 minutes. The supernatants are recovered and the pellets are washed twice with the 0.32 M sucrose buffer as previously. The collected supernatants are centrifuged at 10000 g for 20 minutes. […] The proteinic content of the preparation is determined by the Lowry method.
100 μl of the mitochondrial preparation (2 mg protein/ml) is incubated for 1 hour at 37° C. in an Eppendorf tube, in the presence of 100 μl of [^3H]Ro 19-6327 (33 nM, final concentration) and 100 μl of Tris buffer containing or not containing the inhibitors. […] The radioactivity is determined by counting the samples using liquid scintillation.

IC50 [1]: < 3.5 µM | IC50 [2]: < 25 µM | melting point: 109 to 110 °C
Structure (SMILES): C#CCN(C)Cc1ccc(N=C(N)c2cccs2)cc1 [Example 1, N′-(4-{[methyl(2-propynyl)amino]methyl}phenyl)-2-thiophenecarboximidamide]
